# Results from patent US10660867B2, “Beta-hydroxyketones as topical active ingredients for the prevention or treatment of photodermatoses” (Merck Patent GmbH, priority 2015, dated 2020).
# What was measured:
# [1] = system: test subjects with known PLE syndrome; test: in vivo comparative study, skin reactions on UVA irradiation of treated skin; parameters: key to skin reaction on UVA irradiation, treated skin: 0 denotes no reaction; ± denotes weak reaction; + denotes clear reaction; ++ denotes strong reaction; +++ denotes very strong reaction; conditions: for skin reaction on UVA irradiation, treated skin: 2.0% by wt. in O/W emulsion, 2 mg/cm^2 daily
# Procedure: In the in vivo study described below, the following O/W emulsion is used:
# A comparative study with positive control is carried out on 6 test subjects with known PLE syndrome. The study was carried out in Germany in April over a period of 5 days. The positive control was untreated, irradiated skin. The irradiation was carried out with 100% UVA light in a sub-erythemal dose, which was determined individually. The preparation was applied daily to half of the décolletage (2 mg/cm^2).
# The measurements were carried out twice daily, 10 min. after application of the preparation and immediately after irradiation.
# In the case of all test subjects, skin manifestations which have the presentation of polymorphic light eruption appeared on untreated skin. In case of 4 test subjects, no polymorphic light eruption was observed on treated skin. Only in the case of 2 test subjects was a weak reaction observed.
# UV absorption spectrum = format: physicochemical
# Source text: The absorption behaviour for the compound 3-(4-tert-butylphenyl)-3-hydroxy-1-(4-methoxy-phenyl)propan-1-one is depicted in FIG. 1 as representative.
# [2] = system: transcription factor NF-κB; test: inhibition of activation of the transcription factor NF-κB
# Source text: It is furthermore thought that the compounds of the formula (I), as described above or preferably described below, have an inflammation-inhibiting action. This property also supports the therapeutic and non-therapeutic treatment of photodermatosis. […] 1998, 95(6):729-31.
# [3] = photoconversion of compound A into the UVA filter avobenzone on irradiation; format: physicochemical
# Source text: As representative of the compounds of the formula (I), the efficacy of 3-(4-tert-butylphenyl)-3-hydroxy-1-(4-methoxyphenyl)propan-1-one in vivo is confirmed in the experimental part, where the proportion of UVA filter formed by decomposition of 3-(4-tert-butylphenyl)-3-hydroxy-1-(4-methoxy-phenyl)propan-1-one on exposure to UV light under the selected conditions of the study is only 0.1% by weight.
# Under the conditions of the in vivo study, conversion of compound A into the UVA filter avobenzone in an amount which could exert an influence on the skin appearances of the test subjects can be excluded.
# This can be stated because if a 2% solution of compound A in Cosmacol® ELI (C12-13 alkyl lactate) is irradiated with UVA/UVB light (20/1) in a dose of 5 MED (corresponding to 250 kJ/m^2), 0.1% of avobenzone is formed by conversion.
# Under the conditions of the in vivo experiment, a UVA dose of 20 J/cm^2 (corresponding to 200 kJ/m^2) is irradiated, i.e. even less than 0.1% of avobenzone will form by conversion under these conditions.
# [4] = of 6 test subjects with known PLE syndrome, 5 days, UVA irradiation
compound,measurement,setting,value
"COc1ccc(C(=O)CC(O)c2ccc(C(C)(C)C)cc2)cc1 (stereo not shown) [Compound A, 3-(4-tert-butylphenyl)-3-hydroxy-1-(4-methoxyphenyl)-propan-1-one]",effect on manifestations of polymorphic light eruption on irradiation,"[1]; 6 test subjects, treated vs untreated irradiated skin",suppresses or significantly reduces the manifestations of polymorphic light eruption
same,test subjects with no polymorphic light eruption observed on treated skin,[1]; [4],4 test subjects
same,test subjects with weak reaction on treated skin,[1]; [4],2 test subjects
same,"skin reaction on UVA irradiation, treated skin","[1]; test subject 1, day 1, after irradiation",0
same,"skin reaction on UVA irradiation, treated skin","[1]; test subject 1, day 1, before irradiation",0
same,"skin reaction on UVA irradiation, treated skin","[1]; test subject 1, day 2, after irradiation",0
same,"skin reaction on UVA irradiation, treated skin","[1]; test subject 1, day 2, before irradiation",0
same,"skin reaction on UVA irradiation, treated skin","[1]; test subject 1, day 3, after irradiation",0
same,"skin reaction on UVA irradiation, treated skin","[1]; test subject 1, day 3, before irradiation",0
same,"skin reaction on UVA irradiation, treated skin","[1]; test subject 1, day 4, after irradiation",±
same,"skin reaction on UVA irradiation, treated skin","[1]; test subject 1, day 4, before irradiation",±
same,"skin reaction on UVA irradiation, treated skin","[1]; test subject 1, day 5, after irradiation",±
same,"skin reaction on UVA irradiation, treated skin","[1]; test subject 1, day 5, before irradiation",±
same,"skin reaction on UVA irradiation, treated skin","[1]; test subject 2, day 1, after irradiation",0
same,"skin reaction on UVA irradiation, treated skin","[1]; test subject 2, day 1, before irradiation",0
same,"skin reaction on UVA irradiation, treated skin","[1]; test subject 2, day 2, after irradiation",0
same,"skin reaction on UVA irradiation, treated skin","[1]; test subject 2, day 2, before irradiation",0
same,"skin reaction on UVA irradiation, treated skin","[1]; test subject 2, day 3, after irradiation",0
same,"skin reaction on UVA irradiation, treated skin","[1]; test subject 2, day 3, before irradiation",0
same,"skin reaction on UVA irradiation, treated skin","[1]; test subject 2, day 4, after irradiation",0
same,"skin reaction on UVA irradiation, treated skin","[1]; test subject 2, day 4, before irradiation",0
same,"skin reaction on UVA irradiation, treated skin","[1]; test subject 2, day 5, after irradiation",0
same,"skin reaction on UVA irradiation, treated skin","[1]; test subject 2, day 5, before irradiation",0
same,"skin reaction on UVA irradiation, treated skin","[1]; test subject 3, day 1, after irradiation",0
same,"skin reaction on UVA irradiation, treated skin","[1]; test subject 3, day 1, before irradiation",0
same,"skin reaction on UVA irradiation, treated skin","[1]; test subject 3, day 2, after irradiation",0
same,"skin reaction on UVA irradiation, treated skin","[1]; test subject 3, day 2, before irradiation",0
same,"skin reaction on UVA irradiation, treated skin","[1]; test subject 3, day 3, after irradiation",0
same,"skin reaction on UVA irradiation, treated skin","[1]; test subject 3, day 3, before irradiation",0
same,"skin reaction on UVA irradiation, treated skin","[1]; test subject 3, day 4, after irradiation",0
same,"skin reaction on UVA irradiation, treated skin","[1]; test subject 3, day 4, before irradiation",0
same,"skin reaction on UVA irradiation, treated skin","[1]; test subject 3, day 5, after irradiation",0
same,"skin reaction on UVA irradiation, treated skin","[1]; test subject 3, day 5, before irradiation",0
same,"skin reaction on UVA irradiation, treated skin","[1]; test subject 4, day 1, after irradiation",0
same,"skin reaction on UVA irradiation, treated skin","[1]; test subject 4, day 1, before irradiation",0
same,"skin reaction on UVA irradiation, treated skin","[1]; test subject 4, day 2, after irradiation",0
same,"skin reaction on UVA irradiation, treated skin","[1]; test subject 4, day 2, before irradiation",0
same,"skin reaction on UVA irradiation, treated skin","[1]; test subject 4, day 3, after irradiation",0
same,"skin reaction on UVA irradiation, treated skin","[1]; test subject 4, day 3, before irradiation",0
same,"skin reaction on UVA irradiation, treated skin","[1]; test subject 4, day 4, after irradiation",0
same,"skin reaction on UVA irradiation, treated skin","[1]; test subject 4, day 4, before irradiation",0
same,"skin reaction on UVA irradiation, treated skin","[1]; test subject 4, day 5, after irradiation",0
same,"skin reaction on UVA irradiation, treated skin","[1]; test subject 4, day 5, before irradiation",0
same,"skin reaction on UVA irradiation, treated skin","[1]; test subject 5, day 1, after irradiation",0
same,"skin reaction on UVA irradiation, treated skin","[1]; test subject 5, day 1, before irradiation",0
same,"skin reaction on UVA irradiation, treated skin","[1]; test subject 5, day 2, after irradiation",0
same,"skin reaction on UVA irradiation, treated skin","[1]; test subject 5, day 2, before irradiation",0
same,"skin reaction on UVA irradiation, treated skin","[1]; test subject 5, day 3, after irradiation",0
same,"skin reaction on UVA irradiation, treated skin","[1]; test subject 5, day 3, before irradiation",0
same,"skin reaction on UVA irradiation, treated skin","[1]; test subject 5, day 4, after irradiation",0
same,"skin reaction on UVA irradiation, treated skin","[1]; test subject 5, day 4, before irradiation",0
same,"skin reaction on UVA irradiation, treated skin","[1]; test subject 5, day 5, after irradiation",0
same,"skin reaction on UVA irradiation, treated skin","[1]; test subject 5, day 5, before irradiation",0
same,"skin reaction on UVA irradiation, treated skin","[1]; test subject 6, day 1, after irradiation",0
same,"skin reaction on UVA irradiation, treated skin","[1]; test subject 6, day 1, before irradiation",0
same,"skin reaction on UVA irradiation, treated skin","[1]; test subject 6, day 2, after irradiation",0
same,"skin reaction on UVA irradiation, treated skin","[1]; test subject 6, day 2, before irradiation",0
same,"skin reaction on UVA irradiation, treated skin","[1]; test subject 6, day 3, after irradiation",±
same,"skin reaction on UVA irradiation, treated skin","[1]; test subject 6, day 3, before irradiation",±
same,"skin reaction on UVA irradiation, treated skin","[1]; test subject 6, day 4, after irradiation",±
same,"skin reaction on UVA irradiation, treated skin","[1]; test subject 6, day 4, before irradiation",±
same,"skin reaction on UVA irradiation, treated skin","[1]; test subject 6, day 5, after irradiation",±
same,"skin reaction on UVA irradiation, treated skin","[1]; test subject 6, day 5, before irradiation",±
same,absorption in the UVA region,"UV absorption spectrum; UVA, 320-400 nm",does not absorb in the UVA region
same,absorption,UV absorption spectrum; wavelength 215.5 nm,0.22
same,absorption,UV absorption spectrum; wavelength 273 nm,0.22
same,activation of the transcription factor NF-κB,[2],inhibits activation
same,avobenzone formed by conversion,"[3]; 2% solution in Cosmacol ELI (C12-13 alkyl lactate), UVA/UVB light (20/1), dose 5 MED (250 kJ/m^2)",0.1%
same,avobenzone formed by conversion,"[3]; conditions of the in vivo experiment, UVA dose 20 J/cm^2 (200 kJ/m^2)",less than 0.1%
same,proportion of UVA filter formed by decomposition on exposure to UV light,[3]; under the selected conditions of the study,0.1 % by weight
